PubChem BioAssay (NCI)
Several values for one entry are separate records, joined by “and”; a condition that tells them apart may be missing. Identical values can stand only once.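 Growth conditions: 96-well plates. Treatment: test compound, 48 hours, 5 concentrations. Analysis: linear interpolation between bracketing concentrations; unreached endpoints set to highest concentration. Abbreviation: GI50, concentration required for 50% inhibition of growth. TGI marks complete inhibition of growth.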

Experiments:
Test in all cases: NCI anticancer screen, dose series, 48 h
HS 578T breast = test system: HS 578T breast
HOP-92 NSCLC = test system: HOP-92 NSCLC
SK-OV-3 ovarian = test system: SK-OV-3 ovarian
SNB-75 CNS = test system: SNB-75 CNS
SN12C renal = test system: SN12C renal
UACC-257 melanoma = test system: UACC-257 melanoma
OVCAR-8 ovarian = test system: OVCAR-8 ovarian
IGROV1 ovarian = test system: IGROV1 ovarian
NCI-H460 lung = test system: NCI-H460 lung
TK-10 renal = test system: TK-10 renal
U251 CNS = test system: U251 CNS
UACC-62 melanoma = test system: UACC-62 melanoma
MDA-MB-435 = test system: MDA-MB-435
NCI-H522 lung = test system: NCI-H522 lung
SF-268 CNS = test system: SF-268 CNS
SK-MEL-2 melanoma = test system: SK-MEL-2 melanoma
SK-MEL-28 melanoma = test system: SK-MEL-28 melanoma
DU-145 prostate = test system: DU-145 prostate
MALME-3M melanoma = test system: MALME-3M melanoma
NCI-H23 lung = test system: NCI-H23 lung
OVCAR-3 ovarian = test system: OVCAR-3 ovarian
BT-549 breast = test system: BT-549 breast
UO-31 renal = test system: UO-31 renal
NCI/ADR-RES ovarian = test system: NCI/ADR-RES ovarian
COLO 205 colon = test system: COLO 205 colon
OVCAR-4 ovarian = test system: OVCAR-4 ovarian
T-47D breast = test system: T-47D breast
MDA-MB-231 breast = test system: MDA-MB-231 breast
SNB-19 CNS = test system: SNB-19 CNS
786-0 renal = test system: 786-0 renal
OVCAR-5 ovarian = test system: OVCAR-5 ovarian
SW-620 colon = test system: SW-620 colon
K-562 leukemia = test system: K-562 leukemia
SF-539 CNS = test system: SF-539 CNS
A498 renal = test system: A498 renal
CCRF-CEM leukemia = test system: CCRF-CEM leukemia
MOLT-4 leukemia = test system: MOLT-4 leukemia
PC-3 prostate = test system: PC-3 prostate
LOX IMVI melanoma = test system: LOX IMVI melanoma
M14 melanoma = test system: M14 melanoma
HCC-2998 colon = test system: HCC-2998 colon
HCT-116 colon = test system: HCT-116 colon
RXF 393 renal = test system: RXF 393 renal
A549 NSCLC = test system: A549 NSCLC
SK-MEL-5 melanoma = test system: SK-MEL-5 melanoma
EKVX NSCLC = test system: EKVX NSCLC
HOP-62 NSCLC = test system: HOP-62 NSCLC
SR leukemia = test system: SR leukemia
RPMI-8226 leukemia = test system: RPMI-8226 leukemia
NCI-H226 lung = test system: NCI-H226 lung
HL-60(TB) leukemia = test system: HL-60(TB) leukemia
MCF7 breast = test system: MCF7 breast
HCT-15 colon = test system: HCT-15 colon
HT29 colon = test system: HT29 colon
SF-295 CNS = test system: SF-295 CNS
KM12 colon = test system: KM12 colon
ACHN renal = test system: ACHN renal
CAKI-1 renal = test system: CAKI-1 renal

COc1cc2c(Nc3ccc(Cl)c(Cl)c3F)ncnc2cc1OCC1C[C@@H]2CN(C)C[C@@H]2C1 (stereo not given in full)
GI50 (HS 578T breast): 1130 nM and 1400 nM and 1540 nM | TGI (HS 578T breast): 4670 nM and 5450 nM and 5830 nM | GI50 (HOP-92 NSCLC): 247 nM and 195 nM and 1500 nM | TGI (HOP-92 NSCLC): 1850 nM and 1800 nM and 6780 nM | GI50 (SK-OV-3 ovarian): 234 nM and 241 nM and 195 nM | TGI (SK-OV-3 ovarian): 902 nM and 1510 nM and 865 nM | GI50 (SNB-75 CNS): 406 nM and 430 nM and 822 nM | TGI (SNB-75 CNS): 2030 nM and 5860 nM | GI50 (SN12C renal): 703 nM and 548 nM and 1050 nM | TGI (SN12C renal): 12600 nM and > 10000 nM and 12200 nM | GI50 (UACC-257 melanoma): 1760 nM and 1680 nM and 1950 nM | TGI (UACC-257 melanoma): 3640 nM and 3570 nM and 4050 nM | GI50 (OVCAR-8 ovarian): 2060 nM and 2090 nM and 2430 nM | TGI (OVCAR-8 ovarian): 13800 nM and > 10000 nM and 13600 nM | GI50 (IGROV1 ovarian): 112 nM and 28.4 nM and 50.7 nM | TGI (IGROV1 ovarian): 1950 nM and 791 nM and 1440 nM | GI50 (NCI-H460 lung): 2660 nM and 2730 nM and 3350 nM | TGI (NCI-H460 lung): 9160 nM and > 10000 nM and 13500 nM | GI50 (TK-10 renal): 109 nM and 30.2 nM and 47.2 nM | TGI (TK-10 renal): 1760 nM and 1410 nM and 1450 nM | GI50 (U251 CNS): 1520 nM and 1800 nM and 2300 nM | TGI (U251 CNS): 3410 nM and 4430 nM and 6600 nM | GI50 (UACC-62 melanoma): 1910 nM and 1540 nM and 1880 nM | TGI (UACC-62 melanoma): 4150 nM and 3800 nM and 4410 nM | GI50 (MDA-MB-435): 1570 nM and 1780 nM and 1850 nM | TGI (MDA-MB-435): 3050 nM and 3900 nM and 4290 nM | GI50 (NCI-H522 lung): 304 nM and 75.2 nM and 640 nM | TGI (NCI-H522 lung): 2530 nM and 1660 nM and 3100 nM | GI50 (SF-268 CNS): 1250 nM and 951 nM and 1290 nM | TGI (SF-268 CNS): 4310 nM and > 4820 nM and 7740 nM | GI50 (SK-MEL-2 melanoma): 2320 nM and 1920 nM and 2050 nM | TGI (SK-MEL-2 melanoma): 4830 nM and 4010 nM and 4470 nM | GI50 (SK-MEL-28 melanoma): 1600 nM and 1570 nM and 1830 nM | TGI (SK-MEL-28 melanoma): 3330 nM and 3220 nM and 4150 nM | GI50 (DU-145 prostate): 751 nM and 532 nM and 673 nM | TGI (DU-145 prostate): 13600 nM and > 10000 nM and 13500 nM | GI50 (MALME-3M melanoma): 1790 nM and 1580 nM | TGI (MALME-3M melanoma): 4250 nM and 3540 nM and 3630 nM | GI50 (NCI-H23 lung): 1980 nM and 2100 nM | TGI (NCI-H23 lung): 7010 nM and > 6380 nM and 9220 nM | GI50 (OVCAR-3 ovarian): 1010 nM and 422 nM and 1790 nM | TGI (OVCAR-3 ovarian): 8180 nM and > 9270 nM and 14700 nM | GI50 (BT-549 breast): 4680 nM and 3760 nM and 2390 nM | TGI (BT-549 breast): 13700 nM and > 10000 nM and 7660 nM | GI50 (UO-31 renal): 171 nM and 101 nM and 177 nM | TGI (UO-31 renal): 1930 nM and 1610 nM and 1870 nM | GI50 (NCI/ADR-RES ovarian): 1730 nM and 1570 nM and 1220 nM | TGI (NCI/ADR-RES ovarian): 9930 nM and > 9380 nM and 7350 nM | GI50 (COLO 205 colon): 1810 nM and 1830 nM and 1720 nM | TGI (COLO 205 colon): 3470 nM and 4320 nM and 3930 nM | GI50 (OVCAR-4 ovarian): 1580 nM and 1690 nM and 1750 nM | TGI (OVCAR-4 ovarian): 13400 nM and > 10000 nM and 14000 nM | GI50 (T-47D breast): 465 nM and 363 nM and 330 nM | TGI (T-47D breast): 6560 nM and > 10000 nM and 10200 nM | GI50 (MDA-MB-231 breast): 1410 nM and 1120 nM and 1500 nM | TGI (MDA-MB-231 breast): 4300 nM and 3020 nM and 4880 nM | GI50 (SNB-19 CNS): 2170 nM and 2390 nM and 2040 nM | TGI (SNB-19 CNS): 8760 nM and > 6910 nM and 7070 nM | GI50 (786-0 renal): 1110 nM and 1060 nM and 1030 nM | TGI (786-0 renal): 2580 nM and 2900 nM and 2850 nM | GI50 (OVCAR-5 ovarian): 247 nM and 532 nM and 646 nM | TGI (OVCAR-5 ovarian): 5350 nM and > 10000 nM and 13600 nM | GI50 (SW-620 colon): 1600 nM and 1460 nM and 1720 nM | TGI (SW-620 colon): 3560 nM and 4060 nM and 5060 nM | GI50 (K-562 leukemia): 240 nM and 114 nM and 170 nM | TGI (K-562 leukemia): 2690 nM and > 7770 nM and 3140 nM | GI50 (SF-539 CNS): 1470 nM and 1480 nM and 1580 nM | TGI (SF-539 CNS): 3000 nM and 3010 nM and 3360 nM | GI50 (A498 renal): 186 nM and 433 nM and 278 nM | TGI (A498 renal): 1490 nM and 2030 nM and 2050 nM | TGI (CCRF-CEM leukemia): 7560 nM and 1240 nM and 10500 nM | GI50 (MOLT-4 leukemia): 2180 nM and 1860 nM and 2230 nM | TGI (MOLT-4 leukemia): 7030 nM and 7850 nM and 8670 nM | GI50 (PC-3 prostate): 1530 nM and 1360 nM and 2120 nM | TGI (PC-3 prostate): 11600 nM and > 9560 nM and 8990 nM | GI50 (LOX IMVI melanoma): 953 nM and 1180 nM | TGI (LOX IMVI melanoma): 2310 nM and 2490 nM and 2460 nM | GI50 (M14 melanoma): 1770 nM and 1670 nM and 1820 nM | TGI (M14 melanoma): 3500 nM and 3530 nM and 3770 nM | GI50 (HCC-2998 colon): 2370 nM and 1410 nM and 1820 nM | TGI (HCC-2998 colon): 7100 nM and > 5780 nM and 5030 nM | GI50 (HCT-116 colon): 2210 nM and 1590 nM and 1820 nM | TGI (HCT-116 colon): 10900 nM and > 8580 nM and 9060 nM | GI50 (RXF 393 renal): 808 nM and 690 nM and 846 nM | TGI (RXF 393 renal): 2360 nM and 2410 nM and 2510 nM | GI50 (A549 NSCLC): 1230 nM and 1350 nM and 1280 nM | TGI (A549 NSCLC): 4050 nM and > 5680 nM and 7930 nM | GI50 (SK-MEL-5 melanoma): 1610 nM and 1550 nM and 1570 nM | TGI (SK-MEL-5 melanoma): 3010 nM and 2930 nM and 2940 nM | GI50 (EKVX NSCLC): 33 nM and 101 nM | TGI (EKVX NSCLC): > 6550 nM and 15200 nM | GI50 (HOP-62 NSCLC): 1080 nM and 1000 nM and 1520 nM | TGI (HOP-62 NSCLC): 4170 nM and > 4900 nM and 5750 nM | GI50 (SR leukemia): 2060 nM and 2090 nM and 1920 nM | TGI (SR leukemia): 5490 nM and 5210 nM and 5390 nM | GI50 (RPMI-8226 leukemia): 1980 nM and 1490 nM and 1930 nM | TGI (RPMI-8226 leukemia): 4950 nM and 4290 nM and 5970 nM | GI50 (NCI-H226 lung): 3050 nM and > 4500 nM and 2170 nM | TGI (NCI-H226 lung): 15100 nM and > 10000 nM and 14700 nM | GI50 (HL-60(TB) leukemia): 2310 nM and 1990 nM and 2430 nM | TGI (HL-60(TB) leukemia): 5720 nM and 4730 nM and 5730 nM | GI50 (MCF7 breast): 806 nM and 1190 nM and 1520 nM | TGI (MCF7 breast): 6370 nM and > 6900 nM and 8050 nM | GI50 (HCT-15 colon): 1140 nM and 1250 nM and 1130 nM | TGI (HCT-15 colon): 3700 nM and 5420 nM and 4510 nM | GI50 (HT29 colon): 695 nM and 759 nM and 621 nM | TGI (HT29 colon): 4620 nM and 5860 nM and 4380 nM | GI50 (SF-295 CNS): 1610 nM and 1540 nM and 1460 nM | TGI (SF-295 CNS): 3410 nM and 3260 nM and 3310 nM | GI50 (KM12 colon): 2940 nM and 3500 nM and 3850 nM | TGI (KM12 colon): 9030 nM and > 10000 nM and 15700 nM | GI50 (ACHN renal): 46.8 nM and 51.2 nM and 55.3 nM | TGI (ACHN renal): 3480 nM and > 7360 nM and 5740 nM | GI50 (CAKI-1 renal): 219 nM and 511 nM and 206 nM | TGI (CAKI-1 renal): 2750 nM and 2360 nM and 2320 nM
